Activity data for 33 compounds are collected here from US20200121652A1, “COMPOUNDS HAVING CASPASE INHIBITORY ACTIVITY, PHARMACEUTICAL AGENT CONTAINING SAID COMPOUNDS AND FOR TREATING OR PREVENTING CORNEAL ENDOTHELIAL SYMPTOMS, DISORDERS, OR DISEASES, AND APPLICATION OF SAID PHARMACEUTICAL AGENT” (The Doshisha, priority 2017, published 2020).

For this experiment, the system named is immortalized Fuchs' endothelial corneal dystrophy cells. Nature of the experiment: Concentration-dependent caspase 3/7 activity under TGF-β2 stimulation (Example 3). Format: cell-based. To be noted: Homo sapiens, TGF-β2 10 ng/mL, 28 hours; for activity at 0.01 µM: agent 10 nM; for activity at 0.1 µM: agent 100 nM; for activity at 1 µM: agent 1 μM; for activity at 10 µM: agent 10 μM; for activity at 0.001 µM: agent 1 nM. On the procedure:
7×10^3 immortalized Fuchs' endothelial corneal dystrophy cells were seeded on a 96-well plate and were cultured for 24 hours under the condition of 5% CO2 at 37° C.
After 28 hours under the condition of 5% CO2 at 37° C., cell morphology was observed using a phase difference microscope. Caspase 3/7 activity was then measured using Caspase-Glo 3/7 Assay (Promega, #G8091). DMEM+2% FBS+1% P/S was used as the medium. Caspase 3/7 activity and cell viability in this example were measured using GloMax-Multi Detection System (Promega, E7051).
Caspase 3/7 activity below 80% was used as a indicator indicating whether an agent can be used for treating or preventing a corneal endothelial condition, disorder, or disease, or whether an agent can be used as a caspase inhibitor (the underlines in FIG. 4A-1, FIG. 4A-2 and FIG. 4A-3, and FIG. 4B-1, FIG. 4B-2 and FIG. 4B-3).

Where a name gives a salt, the structure may show the parent alone.

With `CC(=O)OCC(=O)[C@@]12OC3(CCCC3)O[C@@H]1C[C@H]1[C@@H]3CCC4=CC(=O)C=C[C@]4(C)[C@@]3(F)[C@@H](O)C[C@@]12C` [Amcinonide], the activity at 0.01 µM is at most 80%, the activity at 0.1 µM was at most 80%, the activity at 1 µM is at most 80% and the activity at 10 µM is at most 80%.

Regarding `O=C1CCc2ccc(OCCCCN3CCN(c4cccc(Cl)c4Cl)CC3)cc2N1` [Aripiprazole], the activity at 10 µM is at most 80%.

Consider `CN1CC2c3ccccc3Oc3ccc(Cl)cc3C2C1` (centres unmarked) [Asenapine Maleate], for which the activity at 10 µM was at most 80%.

For `CCC(=O)OCC(=O)[C@@]1(OC(=O)CC)[C@@H](C)C[C@H]2[C@@H]3CCC4=CC(=O)C=C[C@]4(C)[C@@]3(Cl)[C@@H](O)C[C@@]21C` [Beclomethasone Dipropionate], the activity at 0.1 µM is at most 80%, the activity at 1 µM was at most 80% and the activity at 10 µM was at most 80%.

As for `C[C@H]1C[C@H]2[C@@H]3CCC4=CC(=O)C=C[C@]4(C)[C@@]3(F)[C@@H](O)C[C@]2(C)[C@@]1(O)C(=O)CO` [Betamethasone], the activity at 0.1 µM is at most 80%, the activity at 1 µM was at most 80% and the activity at 10 µM is at most 80%.

The compound `CC(C)C[C@H]1C(=O)N2CCC[C@H]2[C@]2(O)O[C@](NC(=O)[C@@H]3C=C4c5cccc6[nH]c(Br)c(c56)C[C@H]4N(C)C3)(C(C)C)C(=O)N12` [Bromocriptine Mesylate] registered an activity at 10 µM of at most 80%.

`CCCC1O[C@@H]2C[C@H]3[C@@H]4CCC5=CC(=O)C=C[C@]5(C)[C@H]4[C@@H](O)C[C@]3(C)[C@]2(C(=O)CO)O1` (some centres unmarked) [Budesonide]: the activity at 0.001 µM was at most 80%, the activity at 0.01 µM was at most 80%, the activity at 0.1 µM is at most 80% and the activity at 1 µM is at most 80%. For the same compound, the activity at 10 µM was at most 80%.

`C=C1/C(=C\C=C2/CCC[C@]3(C)[C@@H]([C@H](C)CCCC(C)(C)O)CC[C@@H]23)C[C@@H](O)C[C@@H]1O` [Calcitriol]: the activity at 10 µM was at most 80%.

For the compound `COc1ccccc1OCCNCC(O)COc1cccc2[nH]c3ccccc3c12` (centres unmarked) [Carvedilol], the activity at 10 µM is at most 80%.

Turning to `CCC(=O)O[C@]1(C(=O)CCl)[C@@H](C)C[C@H]2[C@@H]3CCC4=CC(=O)C=C[C@]4(C)[C@@]3(F)[C@@H](O)C[C@@]21C` [Clobetasol Propionate], the activity at 0.01 µM was at most 80%, the activity at 0.1 µM was at most 80%, the activity at 1 µM was at most 80% and the activity at 10 µM was at most 80%. Also, the activity at 1 pM (agent 1 pM) is at most 80%.

In the case of `O=C(O)c1ccc(-n2nc(-c3ccccc3O)nc2-c2ccccc2O)cc1` [Deferasirox], the activity at 10 µM is at most 80%.

In turn, `CC1(C)O[C@@H]2C[C@H]3[C@@H]4CCC5=CC(=O)C=C[C@]5(C)[C@H]4[C@@H](O)C[C@]3(C)[C@]2(C(=O)CO)O1` [Desonide] yielded an activity at 0.1 µM of at most 80%, an activity at 1 µM of at most 80% and an activity at 10 µM of at most 80%.

In the case of `C[C@@H]1C[C@H]2[C@@H]3CCC4=CC(=O)C=C[C@]4(C)[C@@]3(F)[C@@H](O)C[C@]2(C)[C@H]1C(=O)CO` [Desoximetasone], the activity at 0.01 µM was at most 80%, the activity at 0.1 µM was at most 80%, the activity at 1 µM was at most 80% and the activity at 10 µM was at most 80%.

`C[C@@H]1C[C@H]2[C@@H]3CCC4=CC(=O)C=C[C@]4(C)[C@@]3(F)[C@@H](O)C[C@]2(C)[C@@]1(O)C(=O)CO` [Dexamethasone]: the activity at 0.01 µM is at most 80%, the activity at 0.1 µM is at most 80%, the activity at 1 µM is at most 80% and the activity at 10 µM is at most 80%.

With `CCCC(=O)O[C@]1(C(=O)COC(C)=O)CC[C@H]2[C@@H]3C[C@H](F)C4=CC(=O)C=C[C@]4(C)[C@@]3(F)[C@@H](O)C[C@@]21C` [Difluprednate], the activity at 0.001 µM was at most 80%, the activity at 0.01 µM is at most 80%, the activity at 0.1 µM was at most 80% and the activity at 1 µM is at most 80%. The same compound registered an activity at 10 µM of at most 80%.

With `CN1C[C@H](C(=O)N[C@]2(C)O[C@@]3(O)[C@@H]4CCCN4C(=O)[C@H](Cc4ccccc4)N3C2=O)C[C@@H]2c3cccc4[nH]cc(c34)C[C@H]21` [Dihydroergotamine Mesylate], the activity at 10 µM is at most 80%.

The compound `CO[C@H]1C[C@@H]2CC[C@@H](C)[C@@](O)(O2)C(=O)C(=O)N2CCCC[C@H]2C(=O)O[C@H]([C@H](C)C[C@@H]2CC[C@@H](OCCO)[C@H](OC)C2)CC(=O)[C@H](C)/C=C(\C)[C@@H](O)[C@@H](OC)C(=O)[C@H](C)C[C@H](C)/C=C/C=C/C=C/1C` [Everolimus] had an activity at 0.01 µM of at most 80%, an activity at 0.1 µM of at most 80%, an activity at 1 µM of at most 80% and an activity at 10 µM of at most 80%.

Consider `CC(=O)OCC(=O)[C@@]1(O)CC[C@H]2[C@@H]3CCC4=CC(=O)CC[C@]4(C)[C@@]3(F)[C@@H](O)C[C@@]21C` [Fludrocortisone Acetate], for which the activity at 0.1 µM is at most 80%, the activity at 1 µM was at most 80% and the activity at 10 µM was at most 80%.

`CC1(C)O[C@@H]2C[C@H]3[C@@H]4C[C@H](F)C5=CC(=O)C=C[C@]5(C)[C@@]4(F)[C@@H](O)C[C@]3(C)[C@]2(C(=O)CO)O1` [Fluocinolone Acetonide] came in with an activity at 0.01 µM of at most 80%, an activity at 0.1 µM of at most 80%, an activity at 1 µM of at most 80% and an activity at 10 µM of at most 80%. For the same compound, the activity at 10 pM (agent 10 pM) was at most 80%.

Compound `CC(=O)[C@@]1(O)CC[C@H]2[C@@H]3C[C@H](C)C4=CC(=O)C=C[C@]4(C)[C@@]3(F)[C@@H](O)C[C@@]21C` [Fluorometholone] came in with an activity at 0.1 µM of at most 80%, an activity at 1 µM of at most 80% and an activity at 10 µM of at most 80%.

Turning to `CC1(C)O[C@@H]2C[C@H]3[C@@H]4C[C@H](F)C5=CC(=O)CC[C@]5(C)[C@H]4[C@@H](O)C[C@]3(C)[C@]2(C(=O)CO)O1` [Flurandrenolide], the activity at 0.01 µM is at most 80%, the activity at 0.1 µM is at most 80%, the activity at 1 µM was at most 80% and the activity at 10 µM is at most 80%.

The compound `C[C@]12CC[C@@H]3c4ccc(O)cc4C[C@@H](CCCCCCCCC[S+]([O-])CCCC(F)(F)C(F)(F)F)[C@H]3[C@@H]1CC[C@@H]2O` (some centres unmarked) [Fulvestrant] returned an activity at 0.01 µM of at most 80%, an activity at 0.1 µM of at most 80%, an activity at 1 µM of at most 80% and an activity at 10 µM of at most 80%.

`CC1(C)O[C@@H]2C[C@H]3[C@@H]4CCC5=CC(=O)CC[C@]5(C)[C@@]4(F)[C@@H](O)C[C@]3(C)[C@]2(C(=O)CCl)O1` [Halcinonide] registered an activity at 0.01 µM of at most 80%, an activity at 0.1 µM of at most 80%, an activity at 1 µM of at most 80% and an activity at 10 µM of at most 80%.

As to `CC(=O)N1CCN(c2ccc(OCC3COC(Cn4ccnc4)(c4ccc(Cl)cc4Cl)O3)cc2)CC1` (centres unmarked) [Ketoconazole], the activity at 10 µM was at most 80%.

As to `C[C@H]1C[C@@H]2[C@H]([C@@H](O)C[C@@]3(C)[C@H]2CC[C@]3(O)C(=O)CO)[C@@]2(C)C=CC(=O)C=C12` [Methylprednisolone], the activity at 0.1 µM is at most 80%, the activity at 1 µM was at most 80% and the activity at 10 µM was at most 80%.

`C[C@@H]1C[C@H]2[C@@H]3CCC4=CC(=O)C=C[C@]4(C)[C@@]3(Cl)[C@@H](O)C[C@]2(C)[C@@]1(OC(=O)c1ccco1)C(=O)CCl` [Mometasone Furoate]: the activity at 0.01 µM was at most 80%, the activity at 0.1 µM is at most 80%, the activity at 1 µM is at most 80% and the activity at 10 µM is at most 80%.

`COc1c(C)c2c(c(O)c1C/C=C(\C)CCC(=O)OCCN1CCOCC1)C(=O)OC2` [Mycophenolate Mofetil] gave an activity at 0.01 µM of at most 80%, an activity at 0.1 µM of at most 80%, an activity at 1 µM of at most 80% and an activity at 10 µM of at most 80%.

With `COc1c(C)c2c(c(O)c1C/C=C(\C)CCC(=O)O)C(=O)OC2` [Mycophenolic Acid], the activity at 0.01 µM was at most 80%, the activity at 0.1 µM is at most 80%, the activity at 1 µM is at most 80% and the activity at 10 µM was at most 80%.

As for `COC(=O)C1=C(C)NC(C)=C(C(=O)OCC(C)C)C1c1ccccc1[N+](=O)[O-]` (centres unmarked) [Nisoldipine], the activity at 10 µM was at most 80%.

Turning to `CC(=O)Oc1ccccc1C(=O)Nc1ncc([N+](=O)[O-])s1` [Nitazoxanide], the activity at 10 µM was at most 80%.

On to `CC[C@@H]1/C=C(\C)C[C@H](C)C[C@H](OC)[C@H]2O[C@@](O)(C(=O)C(=O)N3CCCC[C@H]3C(=O)O[C@H](/C(C)=C/[C@@H]3CC[C@H](Cl)[C@H](OC)C3)[C@H](C)[C@@H](O)CC1=O)[C@H](C)C[C@@H]2OC` [Pimecrolimus], for which the activity at 0.01 µM is at most 80%, the activity at 1 µM is at most 80% and the activity at 10 µM was at most 80%.

Regarding `C[C@]12C=CC(=O)C=C1CC[C@@H]1[C@@H]2[C@@H](O)C[C@@]2(C)[C@H]1CC[C@]2(O)C(=O)CO` [Prednisolone], the activity at 0.1 µM was at most 80%, the activity at 1 µM is at most 80% and the activity at 10 µM was at most 80%.

`CCc1nc(N)nc(N)c1-c1ccc(Cl)cc1` [Pyrimethamine]: the activity at 10 µM is at most 80%.
